In the experiment the target is Cysteine protease B CPB2.8ΔCTE (Leishmania mexicana). Kind of experiment: Inhibition of Leishmania mexicana Cysteine protease B (CPB2.8deltaCTE) was obtained in a solution-phase assay.
The compound `CC[C@H](C)[C@H](NC(=O)[C@H](Cc1ccccc1)NC[C@H](Cc1ccccc1)NC(=O)[C@@H](NC(=O)[C@@H]1CCCN1C(=O)[C@@H](N)CCCCN)C(C)C)C(=O)N[C@@H](CC1CCCCC1)C(=O)O` gave an inhibition constant Ki of 13 µM. As for `CC[C@H](C)[C@H](NC[C@H](Cc1ccccc1)NC(=O)[C@H](Cc1cnc[nH]1)NC(=O)[C@H](CCC(N)=O)NC(=O)[C@@H](N)CC(=O)O)C(=O)N[C@H](C(=O)N[C@H](C(=O)N[C@@H](CCC(N)=O)C(=O)O)C(C)C)[C@@H](C)CC`, the figure is 30 µM; as for `CC[C@H](C)[C@H](NC(=O)[C@H](CC(C)C)NC[C@H](Cc1ccccc1)NC(=O)CNC(=O)[C@H](CCCCN)NC(=O)[C@@H](N)CC(=O)O)C(=O)N[C@H](C(=O)N[C@@H](CCCCN)C(=O)O)C(C)C`, 18.6 µM.

`CC[C@H](C)[C@H](N)C(=O)N[C@H](C(=O)NCC(=O)N[C@H](CN[C@@H](Cc1ccc(O)cc1)C(=O)N[C@H](C(=O)N[C@H](C(=O)N[C@@H](C)C(=O)O)C(C)C)[C@@H](C)CC)Cc1ccccc1)[C@@H](C)O` displayed a Ki of 53.3 µM. Against the preceding compound, the Ki is about 2.9-fold higher. As to `CC[C@H](C)[C@H](NC(=O)[C@H](C)NC(=O)[C@@H](N)CC1CCCCC1)C(=O)N[C@H](CN[C@@H](Cc1ccc(O)cc1)C(=O)N[C@@H](CCSC)C(=O)N[C@@H](Cc1ccc(O)cc1)C(=O)N[C@@H](Cc1ccc(O)cc1)C(=O)O)Cc1ccccc1`, the affinity corresponds to a Ki of 0.1 µM. Regarding `CC[C@H](C)[C@H](NC(=O)[C@H](CCSC)NC(=O)[C@H](CO)NC(=O)[C@H](CC1CCCCC1)NC[C@H](Cc1ccccc1)NC(=O)[C@H](CC1CCCCC1)NC(=O)[C@H](CO)NC(=O)[C@@H](N)CC(=O)O)C(=O)O`, affinity was put at a Ki of 10.1 µM. The result for `CC[C@H](C)[C@H](NC[C@H](Cc1ccccc1)NC(=O)[C@H](Cc1c[nH]cn1)NC(=O)[C@H](CCCCN)NC(=O)[C@@H](N)CC(=O)O)C(=O)N[C@H](C(=O)N[C@H](C(=O)N[C@@H](CCCCN)C(=O)O)C(C)C)[C@@H](C)CC` reads 20 µM; that for `CC[C@H](C)[C@H](N)C(=O)N[C@@H](CC(=O)O)C(=O)NCC(=O)N[C@@H](CCCCN)CN[C@@H](CC(C)C)C(=O)N[C@@H](Cc1ccc(O)cc1)C(=O)N[C@@H](C)C(=O)N1CCC[C@H]1C(=O)O` [1-{2-[2-[2-(6-Amino-2-{2-[2-(2-amino-3-methyl-pentanoylamino)-3-carboxy-propionylamino]-acetylamino}-hexylamino)-4-methyl-pentanoylamino]-3-(4-hydroxy-phenyl)-propionylamino]-propionyl}-pyrrolidine-2-carboxylic acid], 5.3 µM; that for `CC[C@H](C)[C@H](NC(=O)[C@H](C)NC[C@H](Cc1ccccc1)NC(=O)[C@H](CCCNC(=N)N)NC(=O)[C@H](Cc1c[nH]c2ccccc12)NC(=O)[C@@H](N)CCSC)C(=O)N[C@H](C(=O)N[C@H](C(=O)O)[C@@H](C)O)[C@@H](C)CC` [2-(2-{2-[2-(2-{2-[2-(2-Amino-4-methylsulfanyl-butyrylamino)-3-(1H-indol-3-yl)-propionylamino]-5-guanidino-pentanoylamino}-3-phenyl-propylamino)-propionylamino]-3-methyl-pentanoylamino}-3-methyl-pentanoylamino)-3-hydroxy-butyric acid], 6.5 µM.

As to `CC[C@H](C)[C@H](N)C(=O)N[C@H](C(=O)N[C@H](C(=O)N[C@@H](CCCCN)CN[C@@H](C)C(=O)N[C@H](C(=O)N[C@@H](CC1CCCCC1)C(=O)N[C@H](C(=O)O)[C@@H](C)O)[C@@H](C)CC)[C@@H](C)O)C(C)C` [2-(2-{2-[2-(6-Amino-2-{2-[2-(2-amino-3-methyl-pentanoylamino)-3-methyl-butyrylamino]-3-hydroxy-butyrylamino}-hexylamino)-propionylamino]-3-methyl-pentanoylamino}-3-cyclohexyl-propionylamino)-3-hydroxy-butyric acid], the Ki amounted to 100 µM. The result for `CC[C@H](C)[C@H](NC(=O)[C@H](CC(C)C)NC[C@H](CCCNC(=N)N)NC(=O)CNC(=O)[C@H](CC1CCCCC1)NC(=O)[C@@H](N)C(C)C)C(=O)N[C@@H](Cc1cnc[nH]1)C(=O)N[C@@H](CC(=O)O)C(=O)O` [2-[2-{2-[2-(2-{2-[2-(2-Amino-3-methyl-butyrylamino)-3-cyclohexyl-propionylamino]-acetylamino}-5-guanidino-pentylamino)-4-methyl-pentanoylamino]-3-methyl-pentanoylamino}-3-(3H-imidazol-4-yl)-propionylamino]-succinic acid] reads 71.6 µM. As for `C[C@H](NC[C@H](Cc1ccccc1)NC(=O)[C@H](CCCCN)NC(=O)[C@H](CCCCN)NC(=O)[C@@H](N)CC(=O)O)C(=O)N[C@@H](CC1CCCCC1)C(=O)NCC(=O)N[C@@H](CCCCN)C(=O)O` [6-Amino-2-(2-{2-[2-(2-{6-amino-2-[6-amino-2-(2-amino-3-carboxy-propionylamino)-hexanoylamino]-hexanoylamino}-3-phenyl-propylamino)-propionylamino]-3-cyclohexyl-propionylamino}-acetylamino)-hexanoic acid], the figure is 31.1 µM; as for `CC[C@H](C)[C@H](NC(=O)[C@H](CC(N)=O)NC(=O)[C@H](Cc1ccccc1)NC[C@H](CCCCN)NC(=O)[C@H](CC1CCCCC1)NC(=O)[C@H](CC1CCCCC1)NC(=O)[C@@H](N)CC1CCCCC1)C(=O)N[C@@H](CCCCN)C(=O)O` [6-Amino-2-(2-{2-[2-(6-amino-2-{2-[2-(2-amino-3-cyclohexyl-propionylamino)-3-cyclohexyl-propionylamino]-3-cyclohexyl-propionylamino}-hexylamino)-3-phenyl-propionylamino]-3-carbamoyl-propionylamino}-3-methyl-pentanoylamino)-hexanoic acid], 6.3 µM; as for `C[C@H](NC[C@H](CCCCN)NC(=O)[C@H](Cc1ccccc1)NC(=O)[C@H](CCCCN)NC(=O)[C@@H](N)CC(=O)O)C(=O)N[C@@H](CC1CCCCC1)C(=O)NCC(=O)N[C@@H](CCCCN)C(=O)O` [6-Amino-2-(2-{2-[2-(6-amino-2-{2-[6-amino-2-(2-amino-3-carboxy-propionylamino)-hexanoylamino]-3-phenyl-propionylamino}-hexylamino)-propionylamino]-3-cyclohexyl-propionylamino}-acetylamino)-hexanoic acid], 0.6 µM. As for `NCCCC[C@H](NC(=O)[C@H](CC(N)=O)NC(=O)[C@H](Cc1ccccc1)NC(=O)[C@H](CO)NC[C@H](CCCN=C(N)N)NC(=O)[C@H](Cc1ccccc1)NC(=O)[C@H](CCCCN)NC(=O)[C@@H]1CCCN1)C(=O)O` [6-Amino-2-[2-(2-{2-[2-(2-{6-amino-2-[(pyrrolidine-2-carbonyl)-amino]-hexanoylamino}-3-phenyl-propionylamino)-5-guanidino-pentylamino]-3-hydroxy-propionylamino}-3-phenyl-propionylamino)-3-carbamoyl-propionylamino]-hexanoic acid], the figure is 8.8 µM; as for `CC(C)C[C@H](NC[C@H](Cc1ccccc1)NC(=O)[C@H](Cc1cnc[nH]1)NC(=O)[C@H](CCCCN)NC(=O)[C@@H](N)CC(=O)O)C(=O)N[C@@H](CC(C)C)C(=O)N[C@H](C(=O)N[C@@H](CCCCN)C(=O)O)C(C)C` [6-Amino-2-{2-[2-(2-{2-[2-[6-amino-2-(2-amino-3-carboxy-propionylamino)-hexanoylamino]-3-(3H-imidazol-4-yl)-propionylamino]-3-phenyl-propylamino}-4-methyl-pentanoylamino)-4-methyl-pentanoylamino]-3-methyl-butyrylamino}-hexanoic acid], 1 µM; as for `CSCC[C@H](NC(=O)[C@H](Cc1ccc(O)cc1)NC[C@H](Cc1ccccc1)NC(=O)[C@H](CC(C)C)NC(=O)[C@H](C)NC(=O)[C@@H](N)CC1CCCCC1)C(=O)N[C@@H](Cc1ccc(O)cc1)C(=O)N[C@@H](Cc1ccc(O)cc1)C(=O)O` [ChaALF(CH2NH)YMYY], 1.1 µM.

In the case of “H-AIWYWAAV-OH [2-(2-{2-[2-[2-[2-[2-(2-Amino-propionylamino)-3-methyl-pentanoylamino]-3-(1H-indol-3-yl)-propionylamino]-3-(4-hydroxy-phenyl)-propionylamino]-3-(1H-indol-3-yl)-propionylamino]-propionylamino}-propionylamino)-3-methyl-butyric acid]”, the Ki was 44.7 µM. This Ki is about 41-fold higher than that of the compound before.

These data come from BindingDB's records for doi:10.1021/jm0110901 (Carlsberg Laboratory, 2002).
